Laboratory results from ChEMBL document CHEMBL4732023, “Using NMR to identify binding regions for N and C-terminal Hsp90 inhibitors using Hsp90 domains” (RSC Med Chem, 2021).
≈ marks a conversion by molar mass, not a printed value. Calls of active or inactive are those of the source. No cut-off for these calls is given here. Where a SMILES comes first, the peptide text is derived from it. [ ]: non-standard residue; d: D form. dAla(4-thiazolyl) = N[C@H](Cc1cscn1)C(=O)O; dDip = N[C@@H](C(=O)O)C(c1ccccc1)c1ccccc1; NMeV = CN[C@H](C(=O)O)C(C)C

Columns and labels:
Heat shock protein HSP90 [1] = biological target: T1, Heat shock protein HSP90 (Homo sapiens, UniProt P07900+P08238); test: Binding affinity to recombinant His6-tagged HSP90 C-domain (unknown origin) (553 to 732 residues) expressed in Escherichia coli BL21 (DE3) (DNAY) cells assessed as chemical shift perturbation at protein to compound ratio of 1:1.6 by 15N-1H TROSY-HSQC NMR spectroscopy
Heat shock protein HSP90 [2] = biological target: T1, Heat shock protein HSP90; test: Binding affinity to HSP90 C-terminal domain (unknown origin) by biochemical assay; type: protein assay
Heat shock protein HSP90 [3] = biological target: T1, Heat shock protein HSP90; test: Binding affinity to recombinant His6-tagged HSP90 C-domain (unknown origin) (553 to 732 residues) expressed in Escherichia coli BL21 (DE3) (DNAY) cells assessed as dissociation constant by 15N-1H TROSY-HSQC NMR spectroscopy
[4] = Solubility of compound in water; type: physicochemical; settings: buffer

Activity (Heat shock protein HSP90 [1]) | Kd (Heat shock protein HSP90 [2]) | Kd (Heat shock protein HSP90 [3]) | solubility [4] | Activity (Heat shock protein HSP90 [3]) | Compound
Active | 45 µM | 19.8 µM | – | – | NCCCC[C@@H]1NC(=O)[C@H](Cc2ccccc2)NC(=O)[C@H](Cc2ccc(O)cc2)NC(=O)[C@H](CO)NC(=O)[C@H](CC(N)=O)NC1=O (cyclo(KNSYF))
– | – | – | 200 µM (≈ 143 µg/mL) | Active | CC(C)C[C@@H]1NC(=O)[C@H](C(C)C)N(C)C(=O)[C@@H](CC(C)C)NC(=O)[C@@H](Cc2cscn2)NC(=O)[C@@H](C(c2ccccc2)c2ccccc2)NC1=O (cyclo(L[dDip][dAla(4-thiazolyl)][dL][NMeV]))
– | 500 µM | – | – | – | COc1cc([C@H]2Oc3cc([C@H]4Oc5cc(O)cc(O)c5C(=O)[C@@H]4O)ccc3O[C@@H]2CO)ccc1O [SILYBIN A]
